“Also recorded” adds a separate entry of the source.
Tests used:
PMNL = experiment: Annexin V labelling of PMNL (early apoptosis); type: cell-based, human; details: 20 min incubation at 37°C
Description: A positive control with 10% EtOH is shown to validate the assay.

5-LO = target: T1, 5-LO (Homo sapiens, UniProt P09917); experiment: Biosynthesis of 5-LO products in HEK293 cells expressing 5-LO and FLAP (A23187 + arachidonic acid); type: cell-based; design: expressed in transfected cells; host or cells: HEK293; details: 1 μM compound, 10 μM A23187 + 10 μM arachidonic acid, 15 min
T1 sequence (P09917 1-674): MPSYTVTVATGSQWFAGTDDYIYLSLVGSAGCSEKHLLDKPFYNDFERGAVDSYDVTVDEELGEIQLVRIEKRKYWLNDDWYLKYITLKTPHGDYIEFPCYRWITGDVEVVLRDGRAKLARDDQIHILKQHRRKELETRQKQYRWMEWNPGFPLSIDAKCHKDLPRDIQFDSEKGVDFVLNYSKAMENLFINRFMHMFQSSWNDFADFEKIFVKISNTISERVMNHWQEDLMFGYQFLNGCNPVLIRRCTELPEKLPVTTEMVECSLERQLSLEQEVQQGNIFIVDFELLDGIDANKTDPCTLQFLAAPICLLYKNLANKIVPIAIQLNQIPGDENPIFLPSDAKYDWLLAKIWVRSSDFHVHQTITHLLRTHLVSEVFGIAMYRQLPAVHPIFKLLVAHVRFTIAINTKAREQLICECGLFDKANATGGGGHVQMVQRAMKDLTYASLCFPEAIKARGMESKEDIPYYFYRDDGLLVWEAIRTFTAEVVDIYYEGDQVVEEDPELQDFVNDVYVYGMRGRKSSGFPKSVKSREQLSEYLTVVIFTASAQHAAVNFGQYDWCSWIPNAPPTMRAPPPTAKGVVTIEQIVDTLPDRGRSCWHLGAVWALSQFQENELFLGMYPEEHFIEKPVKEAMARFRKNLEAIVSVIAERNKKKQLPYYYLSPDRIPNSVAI
Experimental: HEK293 cells expressing both 5-LO and the 5-lipoxygenase activating protein (FLAP) were generated as previously reported. For cell stimulation of 5-LO products, transfected HEK293 cells were collected following trypsinization and washed and the cell pellet was resuspended in Hank's balanced salt solution (HBSS, Lonza) containing 1.6 mM CaCl2 at a concentration of 5 × 10^5 cells/ml. Cells were preincubated with each compound at the indicated concentration for 5 min at 37°C. Cells were then stimulated for 15 minutes at 37°C with the addition of 10 μM calcium ionophore A23187 (Sigma-Aldrich) and 10 μM arachidonic acid (Cayman Chemical). Stimulations were stopped by adding 0.5 volume of cold MeOH:MeCN (1 : 1) containing 100 ng/ml of 19-OH prostaglandin B2 (PGB2) as internal standard. Samples were then processed and 5-LO products were analyzed by reversed-phase high-performance liquid chromatography (RP-HPLC) as described previously.
To evaluate CAPE analogues as potential inhibitors of the biosynthesis of 5-LO products, a first series of experiments was performed in HEK293 cells expressing both 5-LO and FLAP as previously described. HEK293 cells were first preincubated with the test compounds (1 μM), then stimulated in the presence of arachidonic acid and calcium ionophore A23187 to induce the biosynthesis of 5-LO products (Figure 2(a)). […] Based on these criteria, compounds 9, 13, 14, 15, 16, and 19 were selected for subsequent analyses.
Figure 2 Effect of the test compounds on the biosynthesis of 5-LO products in transfected HEK293 cells (a) and thapsigargin-stimulated PMNL (b). (a) HEK293 cells expressing both 5-LO and FLAP were incubated in presence of the indicated compounds (1 μM) or their diluent (control, 0.5% DMSO) for 5 min, then biosynthesis of 5-LO products was initiated with the addition of 10 μM calcium ionophore A23187 and 10 μM arachidonic acid for 15 min. After stimulation, reactions were stopped and samples were processed for analysis of 5-LO products by RP-HPLC. Total 5-LO products measured represent the sum of LTB4, its trans isomers, and 5-hydroxyeicosatetraenoic acid. (b) Freshly isolated human PMNL were incubated in presence of test compounds (or their diluent control, DMSO 0.5%) at the indicated concentrations for 5 min. Biosynthesis of the 5-LO products was initiated with the addition of 1 μM of thapsigargin, followed by a 15 min incubation period at 37°C. The stimulation was then stopped and samples were processed for RP-HPLC analysis and total 5-LO products quantification. Total 5-LO products measured represent the sum of LTB4, its trans isomers, 20-COOH- and 20-OH-LTB4 and 5-hydroxyeicosatetraenoic acid. Data are expressed as means ± SEM of at least 3 independent experiments. ^∗Different from control, as determined by one-way ANOVA with Dunnett's multiple comparison test (p < 0.05).

arachidonic acid release = details: cited from earlier work

SMILES: O=C(/C=C/c1ccc(O)c(O)c1)OCCCc1ccccc1 [Compound 13]
- Induction of early apoptosis of PMNL (annexin V labelling) (PMNL): did not induce early apoptosis of PMNL
- Inhibition of biosynthesis of 5-LO products in transfected HEK293 cells (5-LO): showed similar or better inhibitory activity than the reference compound CAPE (2), or decreased the biosynthesis of 5-LO products by more than 50%

SMILES: Cc1ccc(CCOC(=O)/C=C/c2ccc(O)c(O)c2)cc1 [Compound 15]
- Inhibition of biosynthesis of 5-LO products in transfected HEK293 cells (5-LO): showed similar or better inhibitory activity than the reference compound CAPE (2), or decreased the biosynthesis of 5-LO products by more than 50%

SMILES: C=C(C)CCOC(=O)/C=C/c1ccc(O)c(O)c1 [Compound 9]
- Inhibition of biosynthesis of 5-LO products in transfected HEK293 cells (5-LO): showed similar or better inhibitory activity than the reference compound CAPE (2), or decreased the biosynthesis of 5-LO products by more than 50%; also recorded: best inhibitory activity amongst the compounds from the aliphatic series

SMILES: COc1ccc(CCOC(=O)/C=C/c2ccc(O)c(O)c2)cc1 [Compound 16]
- Inhibition of biosynthesis of 5-LO products in transfected HEK293 cells (5-LO): showed similar or better inhibitory activity than the reference compound CAPE (2), or decreased the biosynthesis of 5-LO products by more than 50%

SMILES: O=C(/C=C/c1ccc(O)c(O)c1)OCCc1ccc(F)cc1 [Compound 14]
- Inhibition of biosynthesis of 5-LO products in transfected HEK293 cells (5-LO): showed similar or better inhibitory activity than the reference compound CAPE (2), or decreased the biosynthesis of 5-LO products by more than 50%

SMILES: O=C(/C=C/c1ccc(O)c(O)c1)OCC(c1ccccc1)c1ccccc1 [Compound 19]
- Inhibition of biosynthesis of 5-LO products in transfected HEK293 cells (5-LO): showed similar or better inhibitory activity than the reference compound CAPE (2), or decreased the biosynthesis of 5-LO products by more than 50%

SMILES: O=C(/C=C/c1ccc(O)c(O)c1)OCCc1ccccc1 [CAPE (2), Caffeic acid phenethyl ester, reference compound]
- Inhibition of liberation of cellular arachidonic acid (previously shown) (arachidonic acid release): previously shown to inhibit the liberation of cellular arachidonic acid
- Inhibition of biosynthesis of 5-LO products in transfected HEK293 cells (5-LO): significantly inhibited the biosynthesis of 5-LO products
